Source: ChEMBL document CHEMBL6096672, “In Silico Enabled Discovery of KAI-11101, a Preclinical DLK Inhibitor for the Treatment of Neurodegenerative Disease and Neuronal Injury” (J Med Chem, 2025)
≈ marks a conversion by molar mass, not a printed value.

Legend:
[1] = Inhibition of human DLK transfected in HEK293-T-REx cells assessed as decrease in JNK phosphorylation incubated for 5 hrs by HTRF assay; format: cell-based
[2] = Inhibition of GST-tagged DLK (1 to 520 residues)(unknown origin) using MKK4 as substrate preincubated for 60 mins followed by substrate/ATP addition measured after 30 mins by HTRF assay; set-up: species or system Homo sapiens
[3] = molecular target: Voltage-gated inwardly rectifying potassium channel KCNH2 (Homo sapiens, UniProt Q12809); experiment: Inhibition of hERG by patch-clamp method; format: toxicity
CYP3A4 = CYP3A4 (Homo sapiens, UniProt P08684); experiment: Time dependent inhibition of CYP3A4 (unknown origin) at 30 uM incubated for 30 mins relative to control; format: ADME; details: read-out: TDI
[4] = Intrinsic clearance in mouse liver microsomes; format: ADME, Microsome; details: read-out: CLH
[5] = Ratio of unbound drug concentration in brain to plasma of mouse at 5 mg/kg; format: ADME, organism-based; details: brain and plasma, read-out: K(p,uu,brain)
[6] = Intrinsic clearance in human liver microsomes; format: ADME, Microsome; details: read-out: CLH
[7] = Kinetic solubility of compound at pH 6.8; format: physicochemical; details: buffer, read-out: Kinetic_solubility
[8] = Efflux ratio in MDCK-MDR1 cells; format: ADME, cell-based, Canis lupus familiaris; details: dog
[9] = Apparent permeability across apical to basal side in MDCK-MDR1 cells; format: ADME, cell-based, Canis lupus familiaris; details: dog
[10] = Energy of neutralization, pKa of compound; format: physicochemical
[11] = Intrinsic clearance in dog liver microsomes; format: ADME, Canis lupus familiaris, Microsome; details: read-out: CLH
[12] = Half life in mouse at 5 mg/kg, po; format: ADME, organism-based; details: in vivo
[13] = Clearance in mouse at 5 mg/kg, po; format: ADME, organism-based; details: in vivo
[14] = Oral bioavailability in mouse at 5 mg/kg; format: ADME, organism-based; details: in vivo

Voltage-gated inwardly rectifying potassium channel KCNH2, sequence (Q12809 whole entry): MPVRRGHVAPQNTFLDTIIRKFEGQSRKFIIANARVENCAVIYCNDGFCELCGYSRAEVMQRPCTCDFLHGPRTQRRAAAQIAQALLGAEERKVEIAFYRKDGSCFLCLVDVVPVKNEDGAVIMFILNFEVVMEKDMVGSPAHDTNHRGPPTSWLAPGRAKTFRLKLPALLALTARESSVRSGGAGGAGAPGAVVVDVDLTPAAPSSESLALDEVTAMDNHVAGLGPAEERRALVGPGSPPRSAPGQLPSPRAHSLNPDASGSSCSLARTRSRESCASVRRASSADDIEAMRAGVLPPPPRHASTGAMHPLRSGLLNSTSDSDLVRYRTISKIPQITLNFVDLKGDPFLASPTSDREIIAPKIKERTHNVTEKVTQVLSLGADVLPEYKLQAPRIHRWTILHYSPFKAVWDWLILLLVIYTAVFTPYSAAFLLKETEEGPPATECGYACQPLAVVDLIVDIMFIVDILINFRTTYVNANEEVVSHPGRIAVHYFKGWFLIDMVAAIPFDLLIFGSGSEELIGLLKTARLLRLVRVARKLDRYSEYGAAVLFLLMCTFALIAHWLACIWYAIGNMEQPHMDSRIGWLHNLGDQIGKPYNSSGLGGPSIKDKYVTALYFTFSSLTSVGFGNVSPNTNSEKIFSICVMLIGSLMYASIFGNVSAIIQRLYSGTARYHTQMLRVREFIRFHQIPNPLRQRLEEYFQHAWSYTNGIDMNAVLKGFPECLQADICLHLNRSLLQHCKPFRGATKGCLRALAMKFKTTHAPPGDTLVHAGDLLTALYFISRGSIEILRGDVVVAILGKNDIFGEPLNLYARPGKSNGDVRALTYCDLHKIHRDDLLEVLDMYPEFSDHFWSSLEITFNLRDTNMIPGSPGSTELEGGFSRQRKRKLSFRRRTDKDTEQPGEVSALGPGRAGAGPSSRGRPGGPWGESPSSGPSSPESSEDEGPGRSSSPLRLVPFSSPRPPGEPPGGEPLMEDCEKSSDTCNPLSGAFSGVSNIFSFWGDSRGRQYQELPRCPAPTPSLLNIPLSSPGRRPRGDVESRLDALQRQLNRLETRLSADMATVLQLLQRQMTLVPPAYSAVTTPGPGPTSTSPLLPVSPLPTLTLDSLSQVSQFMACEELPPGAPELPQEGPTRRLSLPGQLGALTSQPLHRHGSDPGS
CYP3A4, sequence (P08684 whole entry): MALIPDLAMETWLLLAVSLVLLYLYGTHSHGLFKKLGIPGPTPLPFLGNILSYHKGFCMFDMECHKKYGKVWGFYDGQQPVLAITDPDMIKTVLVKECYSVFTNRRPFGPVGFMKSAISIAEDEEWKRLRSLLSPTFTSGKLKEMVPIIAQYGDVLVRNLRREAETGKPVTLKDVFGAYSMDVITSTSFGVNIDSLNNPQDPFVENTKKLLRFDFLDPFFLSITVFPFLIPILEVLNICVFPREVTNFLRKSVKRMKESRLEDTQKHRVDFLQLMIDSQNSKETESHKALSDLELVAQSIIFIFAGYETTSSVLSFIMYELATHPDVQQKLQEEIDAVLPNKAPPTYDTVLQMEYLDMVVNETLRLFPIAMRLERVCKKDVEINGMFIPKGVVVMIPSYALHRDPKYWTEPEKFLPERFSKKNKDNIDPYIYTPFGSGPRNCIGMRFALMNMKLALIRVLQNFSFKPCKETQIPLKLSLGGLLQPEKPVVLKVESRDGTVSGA

Row | SMILES | IC50 [1] [µM] | Ki [2] [µM] | other results
1 | CO[C@H](C)c1nc(-c2cnc(N)c(C(F)(F)F)c2)c2ccc(C3CCN(C)CC3)cn12 | 0.054 | 0.0012 | IC50 [3]: 1.3 µM
2 | CCc1nc(-c2cnc(N)c(OC(F)(F)F)c2)c2ccc(C3CCOCC3)nn12 | 0.084 | 0.0016 | inhibition at 0.5 h, 30 µM (CYP3A4): 78%
3 | Nc1ncc(-c2nn(C3CC3)c3c(=O)n(C4CCOCC4)ccc23)cc1OC(F)(F)F | 0.104 | 0.0034 | microsomal CLint [4]: 17 µL/min/mg; Kp uu [5]: 0.31; microsomal CLint [6]: 13 µL/min/mg
4 | CCc1nc(-c2cnc(N)c(OC(F)(F)F)c2)c2ccc([C@H]3COCC4(CC4)N3C)cn12 | 0.104 | 0.0012 | inhibition at 0.5 h, 30 µM (CYP3A4): 67%; IC50 [3]: 30 µM
5 | CN1CCC(c2ccc3c(-c4cnc(N)c(C(F)(F)F)c4)ncn3c2)CC1 | 0.128 | 0.0015 | solubility kinetic [7]: 80 µM (≈ 30 µg/mL)
6 | CCn1nc(-c2cnc(N)c(C(F)(F)F)c2)c2ccn([C@@H]3CCOC[C@@H]3OC3CC3)c(=O)c21 | 0.18 | 0.0018 | Kp uu [5]: 0.24
7 | Nc1ncc(-c2n[nH]c3cnccc23)cc1C(F)(F)F | – | 0.149 | –
8 | CCn1nc(-c2cnc(N)c(OC(F)(F)F)c2)c2ccc([C@H]3COCCN3C)cc21 | 0.103 | 0.0012 | inhibition at 0.5 h, 30 µM (CYP3A4): 15%; Kp uu [5]: 0.42; efflux ratio [8]: 0.4; Papp A→B [9]: 24.1 ×10⁻⁶ cm/s
9 | CCn1nc(-c2cnc(N)c(OC(F)(F)F)c2)c2ccn([C@@H](C)C3CC3)c(=O)c21 | 0.11 | 0.0015 | microsomal CLint [4]: 10 µL/min/mg; Kp uu [5]: 0.38; microsomal CLint [6]: < 4 µL/min/mg
10 | CCn1nc(-c2cnc(N)c(OC(F)(F)F)c2)c2ccn([C@@H]3CCOC3)c(=O)c21 | 0.12 | 0.0077 | microsomal CLint [4]: 33 µL/min/mg; microsomal CLint [6]: 22 µL/min/mg
11 | CCc1nc(-c2cnc(N)c(OC(F)(F)F)c2)c2ccn(C3CCOCC3)c(=O)n12 | 0.19 | 0.002 | inhibition at 0.5 h, 30 µM (CYP3A4): 87%
12 | CCc1nc(-c2cnc(N)c(OC(F)(F)F)c2)c2ccc(C3(N4CCOCC4)CC3)cn12 | 0.031 | 0.0007 | pKa [10]: 5.1; IC50 [3]: 17 µM
13 | CCc1nc(-c2cnc(N)c(C(F)(F)F)c2)c2ccc(C3(F)CCN(C)CC3)cn12 | 0.04 | 0.0006 | pKa [10]: 8.4; IC50 [3]: 0.6 µM
14 | Nc1ncc(-c2cc3cn[nH]c3cn2)cc1C(F)(F)F | – | 0.421 | –
15 | Nc1ncc(-c2cn(C3CCC3)c3cccnc23)cc1C(F)(F)F | – | 0.194 | –
16 | CCn1nc(-c2cnc(N)c(OC(F)(F)F)c2)c2ccn(C3CCN(C)CC3)c(=O)c21 | 0.13 | 0.0025 | microsomal CLint [4]: 4 µL/min/mg; Kp uu [5]: 0.38; microsomal CLint [6]: < 3 µL/min/mg
17 | CCc1nc(-c2cnc(N)c(C(F)(F)F)c2)c2ccc(C3COC3)cn12 | – | 0.001 | –
18 | CCn1nc(-c2cnc(N)c(OC(F)(F)F)c2)c2ccn(C3COC3)c(=O)c21 | 0.44 | 0.0105 | microsomal CLint [4]: 24 µL/min/mg; Kp uu [5]: 0.5; microsomal CLint [6]: 9.2 µL/min/mg
19 | CCc1nc(-c2cnc(N)c(C(F)(F)F)c2)c2ccc(C3CCOCC3)cn12 | – | – | microsomal CLint [4]: 9 µL/min/mg; solubility kinetic [7]: 1 µM (≈ 0.39 µg/mL); efflux ratio [8]: 0.8; Papp A→B [9]: 12.3 ×10⁻⁶ cm/s; microsomal CLint [6]: 27 µL/min/mg
20 | CCn1nc(-c2cnc(N)c(OC(F)(F)F)c2)c2ccn([C@@H]3CCCOCC3)c(=O)c21 | 0.14 | 0.0013 | microsomal CLint [4]: 25 µL/min/mg; Kp uu [5]: 0.29; microsomal CLint [6]: 18 µL/min/mg
21 | CCc1nc(-c2cnc(N)c(OC(F)(F)F)c2)c2cc(Cl)c([C@H]3COCCN3C)cn12 | 0.45 | 0.0071 | inhibition at 0.5 h, 30 µM (CYP3A4): 67%
22 | CCn1nc(-c2cnc(N)c(OC(F)(F)F)c2)c2ccn([C@@H]3CCOC[C@H]3OC)c(=O)c21 | 0.085 | 0.0019 | microsomal CLint [4]: 24 µL/min/mg; Kp uu [5]: 0.43; microsomal CLint [6]: 9.3 µL/min/mg
23 | CCc1nc(-c2cnc(N)c(OC(F)(F)F)c2)c2ccc([C@@]3(C)COCCN3C)cn12 | 0.029 | 0.00047 | inhibition at 0.5 h, 30 µM (CYP3A4): 62%
24 | CCc1nc(-c2cnc(N)c(OC(F)(F)F)c2)c2ccc([C@H]3COCC(=O)N3C)cn12 | 0.033 | 0.00026 | inhibition at 0.5 h, 30 µM (CYP3A4): 65%
25 | CCn1nc(-c2cnc(N)c(OC(F)(F)F)c2)c2ccn([C@H]3CCN(C)C[C@H]3OC(F)(F)F)c(=O)c21 | 0.13 | 0.0011 | microsomal CLint [4]: 66 µL/min/mg; microsomal CLint [6]: 41 µL/min/mg; microsomal CLint [11]: 21 µL/min/mg
26 | CN1CCC(Cc2ccc3c(-c4cnc(N)c(C(F)(F)F)c4)ncn3c2)CC1 | 0.405 | 0.0045 | solubility kinetic [7]: 68 µM (≈ 26.5 µg/mL)
27 | CCc1nc(-c2cnc(N)c(OC(F)(F)F)c2)c2ccc([C@H]3CC(=O)N(C)C3)cn12 | 0.07 | 0.00077 | inhibition at 0.5 h, 30 µM (CYP3A4): 81%

Row | SMILES | IC50 [1] [µM] | Ki [2] [µM] | other results
28 | CC(C)c1n[nH]c2cnc(-c3cnc(N)c(C(F)(F)F)c3)cc12 | – | 0.079 | –
29 | CCn1nc(-c2cnc(N)c(OC(F)F)c2)c2ccn([C@H]3CCOC[C@H]3OC3CC3)c(=O)c21 | 0.032 | 0.00058 | Kp uu [5]: 0.15
30 | CN1CCC(c2ccc3c(-c4cnc(N)c(C(F)(F)F)c4)nc(C(F)(F)F)n3c2)CC1 | 0.094 | 0.0021 | solubility kinetic [7]: 76 µM (≈ 33.7 µg/mL)
31 | CCc1nc(-c2cnc(N)c(OC(F)F)c2)c2ccc([C@H]3COCCN3C)cn12 | – | – | microsomal CLint [4]: 17 µL/min/mg; solubility kinetic [7]: 284 µM (≈ 115 µg/mL); half-life [12]: 18 min; CL/F [13]: 109 mL/min/kg; Kp uu [5]: 0.14; bioavailability [14]: 144%; efflux ratio [8]: 0.8; Papp A→B [9]: 30.1 ×10⁻⁶ cm/s; microsomal CLint [6]: 8 µL/min/mg
32 | CCn1nc(-c2cnc(N)c(OC(F)(F)F)c2)c2ccn([C@@H]3CCOC[C@@H]3OC)c(=O)c21 | 0.094 | 0.0019 | microsomal CLint [4]: 8.3 µL/min/mg; Kp uu [5]: 0.41; microsomal CLint [6]: 14 µL/min/mg; microsomal CLint [11]: 96 µL/min/mg
33 | CN1CCCC[C@H]1c1ccc2c(-c3cnc(N)c(C(F)(F)F)c3)ncn2c1 | 0.09 | 0.0043 | solubility kinetic [7]: 73 µM (≈ 27.4 µg/mL); pKa [10]: 8.1; IC50 [3]: 1.1 µM
34 | CCn1nc(-c2cnc(N)c(OC(F)(F)F)c2)c2ccn([C@H]3CCOC[C@H]3OC3CC3)c(=O)c21 | 0.095 | 0.0013 | microsomal CLint [4]: 21 µL/min/mg; Kp uu [5]: 0.22; microsomal CLint [6]: 12 µL/min/mg; microsomal CLint [11]: 21 µL/min/mg
35 | Nc1ncc(-c2cc3cn[nH]c3c(C3CC3)n2)cc1C(F)(F)F | – | 0.059 | –
36 | CCn1nc(-c2cnc(N)c(OC(F)F)c2)c2ccn([C@H]3CCOC[C@H]3OC(F)(F)F)c(=O)c21 | 0.046 | 0.00092 | Kp uu [5]: 0.5
37 | CCn1nc(-c2cnc(N)c(OC(F)(F)F)c2)c2ccn([C@H]3CC4(CC4)OC[C@H]3OC)c(=O)c21 | 0.2 | 0.0022 | microsomal CLint [4]: 9.7 µL/min/mg; microsomal CLint [6]: 3.2 µL/min/mg; microsomal CLint [11]: 5.4 µL/min/mg
38 | Nc1ncc(-c2c[nH]c3cccnc23)cc1C(F)(F)F | – | 0.195 | –
39 | CCn1nc(-c2cnc(N)c(OC(F)F)c2)c2ccn([C@H]3CCOC[C@H]3OC3CCC3)c(=O)c21 | 0.035 | 0.00065 | –
40 | CC(C)n1cc(-c2cnc(N)c(C(F)(F)F)c2)c2nc(C3CC3)ccc21 | – | 0.027 | –
41 | CCn1nc(-c2cnc(N)c(OC(F)(F)F)c2)c2ccn(C3CCOCC3)c(=O)c21 | 0.11 | 0.0028 | microsomal CLint [4]: 16 µL/min/mg; inhibition at 0.5 h, 30 µM (CYP3A4): 18%; Kp uu [5]: 0.43; efflux ratio [8]: 1; Papp A→B [9]: 7.6 ×10⁻⁶ cm/s; microsomal CLint [6]: 8.8 µL/min/mg
42 | CCn1nc(-c2cnc(N)c(OC(F)(F)F)c2)c2ccc([C@H]3COCCN3C)nc21 | 0.094 | 0.0024 | inhibition at 0.5 h, 30 µM (CYP3A4): 14%
43 | Nc1ncc(-c2n[nH]c3ccsc23)cc1C(F)(F)F | – | 0.0724 | –
44 | CN1CCC(c2ccc3c(-c4cnc(N)c(C(F)(F)F)c4)nc([C@@H]4CCCO4)n3c2)CC1 | 0.022 | 0.0007 | IC50 [3]: 0.8 µM
45 | CC(C)c1ccc2c(-c3cnc(N)c(C(F)(F)F)c3)ncn2c1 | 0.49 | 0.0092 | solubility kinetic [7]: 10 µM (≈ 3.2 µg/mL)
46 | Nc1ncc(-c2ncn3ccccc23)cc1C(F)(F)F | – | 0.063 | –
47 | CCc1nc(-c2cnc(N)c(C(F)(F)F)c2)c2ccc(CN3CCOCC3)cn12 | 0.242 | 0.0046 | pKa [10]: 6.1; IC50 [3]: 2.5 µM
48 | CCc1nc(-c2cnc(N)c(C(F)(F)F)c2)c2ccc([C@H]3CN(C)CCO3)cn12 | 0.1 | 0.0025 | pKa [10]: 6.8; IC50 [3]: 6.9 µM
49 | CCn1nc(-c2cnc(N)c(OC(F)(F)F)c2)c2ccn(C3CCN(C4COC4)CC3)c(=O)c21 | 0.13 | 0.003 | microsomal CLint [4]: 8.3 µL/min/mg; Kp uu [5]: 0.15; microsomal CLint [6]: 7.9 µL/min/mg
50 | Nc1ncc(-c2ncn3cc(C4CCN(C5COC5)CC4)ccc23)cc1C(F)(F)F | 0.134 | 0.0032 | solubility kinetic [7]: 6 µM (≈ 2.5 µg/mL)
51 | CCc1nc(-c2cnc(N)c(OC(F)(F)F)c2)c2cc(C)c([C@H]3COCCN3C)cn12 | 0.29 | 0.0053 | inhibition at 0.5 h, 30 µM (CYP3A4): 70%
52 | CN1CCC(c2ccc3c(-c4cnc(N)c(C(F)(F)F)c4)nc(C#N)n3c2)CC1 | 0.162 | 0.0048 | –
53 | Nc1ncc(-c2ccc3ncsc3n2)cc1C(F)(F)F | – | 0.416 | –
54 | CN1CCOC[C@H]1c1ccc2c(-c3cnc(N)c(OC(F)(F)F)c3)nc(C(F)(F)F)n2c1 | 0.3 | 0.0035 | inhibition at 0.5 h, 30 µM (CYP3A4): 33%
